In patent US7985759B2, “Dipeptidyl peptidase IV inhibitors and processes for their preparation and pharmaceutical compositions containing them” (Matrix Laboratories Ltd., priority 2006, dated 2011):

Target: T1, Human recombinant DPP-IV (Homo sapiens, UniProt P27487)
T1 construct: host or cells: Sf9 insect cells
Assay: Assay of Dipeptidyl Peptidase IV activity (hydrolysis of Ala-Pro-AFC, fluorometric)
Type: biochemical
Settings: human recombinant DPP-IV (expressed in insect Sf9 cells), 20 μM Ala-Pro-AFC, 15 min preincubation, 30 min at 37° C., pH 8.0
Experimental: Assay of Dipeptidyl Peptidase IV Activity
The inhibition of proteolytic activity of DPP-IV was assayed by following the hydrolysis of Ala-Pro-7-amino-4-trifluoromethylcoumarin (Ala-Pro-AFC) and fluorometric quantitation of the liberated AFC. Human recombinant DPP-IV (expressed in insect Sf9 cells) was used for the assay. Test compounds were dissolved in dimethyl sulfoxide (DMSO). Generally, the enzyme (about 20 ng/ml in 100 mM Tris-HCl buffer, pH 8.0) was preincubated in the absence (1% DMSO) and presence of various concentrations of the test compounds for 15 min at 37° C. The reaction was initiated by the addition of 20 μM Ala-Pro-AFC and further incubated for 30 min at 37° C. The AFC liberated was measured in a spectrofluorometer with excitation and emission wavelengths set at 400 nm and 510 nm, respectively. Results are expressed as percent inhibition of enzyme activity. A reference standard (a known inhibitor of DPP-IV) was always included in the assay.

T1 sequence (P27487 whole entry): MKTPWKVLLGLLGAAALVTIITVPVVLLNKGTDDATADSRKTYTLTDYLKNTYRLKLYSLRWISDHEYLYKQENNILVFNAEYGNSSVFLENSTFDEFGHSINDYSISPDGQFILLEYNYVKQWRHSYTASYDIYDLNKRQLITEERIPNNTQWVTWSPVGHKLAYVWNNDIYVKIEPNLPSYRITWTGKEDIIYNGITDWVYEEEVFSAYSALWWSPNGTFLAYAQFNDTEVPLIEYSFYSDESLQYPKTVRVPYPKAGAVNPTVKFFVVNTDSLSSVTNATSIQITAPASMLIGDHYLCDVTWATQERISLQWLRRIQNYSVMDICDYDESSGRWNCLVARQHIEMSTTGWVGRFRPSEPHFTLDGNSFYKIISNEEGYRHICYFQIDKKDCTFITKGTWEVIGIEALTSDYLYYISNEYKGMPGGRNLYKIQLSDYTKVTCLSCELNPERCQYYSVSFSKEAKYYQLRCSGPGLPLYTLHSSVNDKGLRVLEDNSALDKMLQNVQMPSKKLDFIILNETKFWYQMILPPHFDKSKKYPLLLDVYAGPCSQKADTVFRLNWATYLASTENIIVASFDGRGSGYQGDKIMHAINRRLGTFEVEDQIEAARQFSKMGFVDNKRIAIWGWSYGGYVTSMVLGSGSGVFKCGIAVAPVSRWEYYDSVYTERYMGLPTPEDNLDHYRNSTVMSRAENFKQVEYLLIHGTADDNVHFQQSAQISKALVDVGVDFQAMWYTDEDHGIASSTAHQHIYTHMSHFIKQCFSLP

| Structure (SMILES) | IC50 [nM] |
| --- | --- |
| N#C[C@@H]1C[C@H](F)CN1C(=O)CNC12CC3CC1CC(c1ccc(N4CCCS4(=O)=O)cc1)(C3)C2 (stereo partly drawn) [Example 12, (2S,4S)-1-{N-[2-[4-(1,1-dioxidoisothiazolidin-2-yl)phenyl]hexahydro-2,5-methanopentalen-3a(1H)-yl]glycyl}-4-fluoropyrrolidine-2-carbonitrile] | 5 |
| N#C[C@@H]1CCCN1C(=O)CNC12CC3CC1CC(c1ccc(N4CCCS4(=O)=O)cc1)(C3)C2 (stereo partly drawn) [Example 11, (2S)-1-{N-[2-[4-(1,1-dioxidoisothiazolidin-2-yl)phenyl]hexahydro-2,5-methanopentalen-3a(1H)-yl]glycyl}pyrrolidine-2-carbonitrile] | 20 |
| N#C[C@@H]1C[C@@H](F)CN1C(=O)CNC12CC3CC1CC(Cn1cncn1)(C3)C2 (stereo partly drawn) [Example 3, (2S,4R)-4-fluoro-1-{N-[2-(1H-1,2,4-triazol-1-ylmethyl)hexahydro-2,5-methanopentalen-3a(1H)-yl]glycyl}pyrrolidine-2-carbonitrile] | > 300 |
| N#C[C@@H]1CCCN1C(=O)CNC12CC3CC1CC(c1ccc([N+](=O)[O-])cc1)(C3)C2 (stereo partly drawn) [Example 29, (2S)-1-{N-[2-(4-nitrophenyl)hexahydro-2,5-methanopentalen-3a(1H)-yl]glycyl}pyrrolidine-2-carbonitrile] | ~30 |
| N#C[C@@H]1CSCN1C(=O)CNC12CC3CC1CC(Cn1cncn1)(C3)C2 (stereo partly drawn) [Example 4, (4R)-3-{N-[2-(1H-1,2,4-triazol-1-ylmethyl)hexahydro-2,5-methanopentalen-3a(1H)-yl]glycyl}-1,3-thiazolidine-4-carbonitrile] | 7 |
| N#C[C@@H]1CCCN1C(=O)CNC12CC3CC1CC(c1ccc(N4CCNC4=O)cc1)(C3)C2 (stereo partly drawn) [Example 19, (2S)-1-{N-[2-[4-(2-oxoimidazolidin-1-yl)phenyl]hexahydro-2,5-methanopentalen-3a(1H)-yl]glycyl}pyrrolidine-2-carbonitrile] | 15.4 |
| N#C[C@@H]1CSCN1C(=O)CNC12CC3CC1CC(c1ccc(N4CCCC4=O)cc1)(C3)C2 (stereo partly drawn) [Example 17, (4R)-3-{N-[2-[4-(2-oxopyrrolidin-1-yl)phenyl]hexahydro-2,5-methanopentalen-3a(1H)-yl]glycyl}-1,3-thiazolidine-4-carbonitrile] | 8.7 |
| N#C[C@@H]1C[C@H](F)CN1C(=O)CNC12CC3CC1CC(Cn1cncn1)(C3)C2 (stereo partly drawn) [Example 2, (2S,4S)-4-fluoro-1-{N-[2-(1H-1,2,4-triazol-1-ylmethyl)hexahydro-2,5-methanopentalen-3a(1H)-yl]glycyl}pyrrolidine-2-carbonitrile] | 2.8 |
| N#C[C@@H]1CCCN1C(=O)CNC12CC3CC1CC(CN1C(=O)c4ccccc4C1=O)(C3)C2 (stereo partly drawn) [Example 10, (2S)-1-{N-[2-[(1,3-dioxo-1,3-dihydro-2H-isoindol-2-yl)methyl]hexahydro-2,5-methanopentalen-3a(1H)-yl]glycyl}pyrrolidine-2-carbonitrile] | ~30 |
| N#C[C@@H]1CCCN1C(=O)CNC12CC3CC1CC(c1ccc(-n4cccc4)cc1)(C3)C2 (stereo partly drawn) [Example 18, (2S)-1-{N-[2-[4-(1H-pyrrol-1-yl)phenyl]hexahydro-2,5-methanopentalen-3a (1H)-yl]glycyl}pyrrolidine-2-carbonitrile] | ~30 |
| CN1CCN(CC23CC4CC(C2)C(NCC(=O)N2CCC[C@H]2C#N)(C4)C3)CC1 (stereo partly drawn) [Example 6, (2S)-1-{N-[2-[(4-methylpiperazin-1-yl)methyl]hexahydro-2,5-methanopentalen-3a (1H)-yl]glycyl}pyrrolidine-2-carbonitrile] | 100 |
| N#C[C@@H]1C[C@H](F)CN1C(=O)CNC12CC3CC1CC(c1ccc(N4CCCC4=O)cc1)(C3)C2 (stereo partly drawn) [Example 16, (2S,4S)-4-fluoro-1-{N-[2-[4-(2-oxopyrrolidin-1-1)phenyl]hexahydro-2,5-methanopentalen-3a(1H)-yl]glycyl}pyrrolidine-2-carbonitrile] | 0.95 |
| N#C[C@@H]1CSCN1C(=O)CNC12CC3CC1CC(c1ccc(N4CCCS4(=O)=O)cc1)(C3)C2 (stereo partly drawn) [Example 14, (4R)-3-{N-[2-[4-(1,1-dioxidoisothiazolidin-2-yl)phenyl]hexahydro-2,5-methanopentalen-3a(1H)-yl]glycyl}-1,3-thiazolidine-4-carbonitrile] | 6.4 |
| CN1CCN(c2ccc(C34CC5CC(C3)C(NCC(=O)N3CCC[C@H]3C#N)(C5)C4)cc2)C1=O (stereo partly shown) [Example 32] | 53.6 |
| N#C[C@@H]1CCCN1C(=O)CNC12CC3CC1CC(c1ccc(N4CCCC4=O)cc1)(C3)C2 (stereo partly drawn) [Example 15, (2S)-1-{N-[2-[4-(2-oxopyrrolidin-1-yl)phenyl]hexahydro-2,5-methanopentalen-3a(1H)-yl]glycyl}pyrrolidine-2-carbonitrile] | 4 |

Results, then the compound that gave them:

| IC50 [nM] | Structure (SMILES) |
| --- | --- |
| 22 | N#C[C@@H]1CCCN1C(=O)CNC12CC3CC1CC(CN1CCCS1(=O)=O)(C3)C2 (stereo partly drawn) [Example 8, (2S)-1-{N-[2-[(1,1-dioxidoisothiazolidin-2-yl)methyl]hexahydro-2,5-methanopentalen-3a(1H)-yl]glycyl}pyrrolidine-2-carbonitrile] |
| 31.2 | N#C[C@@H]1CCCN1C(=O)CNC12CC3CC1CC(CN1C(=O)CSC1=O)(C3)C2 (stereo partly drawn) [Example 9, (2S)-1-{N-[2-[(2,4-dioxo-1,3-thiazolidin-3-yl)methyl]hexahydro-2,5-methanopentalen-3a(1H)-yl]glycyl}pyrrolidine-2-carbonitrile] |
| 8.1 | N#C[C@@H]1CCCN1C(=O)CNC12CC3CC1CC(Cn1cncn1)(C3)C2 (stereo partly drawn) [Example 1, (2S)-1-[1H-1,2,4-triazol-1-ylmethyl(tricyclo[3.3.1.0^3,7]non-3-ylamino)acetyl]pyrrolidine-2-carbonitrile] |
| 64.5 | N#C[C@@H]1CCCN1C(=O)CNC12CC3CC1CC(O)(C3)C2 (stereo partly drawn) [Example 21, (2S)-1-{[(1-hydroxytricyclo[3.3.1.0^3,7]non-3-yl)amino]acetyl}pyrrolidine-2-carbonitrile] |
| 100 | N#C[C@@H]1CCCN1C(=O)CNC12CC3CC1CC(N)(C3)C2 (stereo partly drawn) [Example 24, (2S)-1-{[(1-aminotricyclo[3.3.1.0^3,7]non-3-yl)amino]acetyl}pyrrolidine-2-carbonitrile] |
| 30 | N#C[C@@H]1CCCN1C(=O)CNC12CC3CC(CC1C3)C2 [Example 20, (2S)-1-[(tricyclo[3.3.1.0^3,7]non-3-ylamino)acetyl]pyrrolidine-2-carbonitrile] |
| 30 | N#C[C@@H]1CCCN1C(=O)CNC12CC3CC1CC(c1ccccc1)(C3)C2 (stereo partly drawn) [Example 28, (2S)-1-[N-(2-phenylhexahydro-2,5-methanopentalen-3a(1H)-yl)glycyl]pyrrolidine-2-carbonitrile] |
| 11.9 | CCOC12CC3CC(C1)C(NCC(=O)N1CCC[C@H]1C#N)(C3)C2 (stereo partly drawn) [Example 23, (2S)-1-{[(1-ethoxytricyclo[3.3.1.0^3,7]non-3-yl)amino]acetyl}pyrrolidine-2-carbonitrile] |
| 21 | N#C[C@@H]1CCCN1C(=O)CNC12CC3CC1CC(Cc1ncon1)(C3)C2 (stereo partly shown) [Example 31] |
| 100 | N#C[C@@H]1CCCN1C(=O)CNC12CC3CC1CC(F)(C3)C2 (stereo partly drawn) [Example 25, (2S)-1-[N-(2-fluorohexahydro-2,5-methanopentalen-3a(1H)-yl)glycyl]pyrrolidine-2-carbonitrile] |
| 11 | N#C[C@@H]1CCCN1C(=O)CNC12CC3CC1CC(Cn1cnnn1)(C3)C2 (stereo partly drawn) [Example 5, (2S)-1-{N-[2-(1H-tetrazol-1-ylmethyl)hexahydro-2,5-methanopentalen-3a(1H)-yl]glycyl}pyrrolidine-2-carbonitrile] |
| 30 | N#C[C@@H]1CCCN1C(=O)CNC12CC3CC1CC(N1CCCS1(=O)=O)(C3)C2 (stereo partly drawn) [Example 27, (2S)-1-{N-[2-(1,1-dioxidoisothiazolidin-2-yl)hexahydro-2,5-methanopentalen-3a(1H)-yl]glycyl}pyrrolidine-2-carbonitrile] |
| 30 | N#C[C@@H]1CCCN1C(=O)CNC12CC3CC1CC(CN1CCSCC1)(C3)C2 (stereo partly drawn) [Example 7, (2S)-1-{N-[2-(thiomorpholin-4-ylmethyl)hexahydro-2,5-methanopentalen-3a(1H)-yl]glycyl}pyrrolidine-2-carbonitrile] |
| 30 | COC12CC3CC(C1)C(NCC(=O)N1CCC[C@H]1C#N)(C3)C2 (stereo partly drawn) [Example 22, (2S)-1-{[(1-methoxytricyclo[3.3.1.0^3,7]non-3-yl)amino]acetyl}pyrrolidine-2-carbonitrile] |
| ~32.4 | N#C[C@@H]1CCCN1C(=O)CNC12CC3CC1CC(c1ccc(N)cc1)(C3)C2 (stereo partly drawn) [Example 30, (2S)-1-{N-[2-(4-aminophenyl)hexahydro-2,5-methanopentalen-3a(1H)-yl]glycyl}pyrrolidine-2-carbonitrile] |
| 21.8 | N#C[C@@H]1CCCN1C(=O)CNC12CC3CC1CC(N1CCCC1=O)(C3)C2 (stereo partly drawn) [Example 26, (2S)-1-{N-[2-(2-oxopyrrolidin-1-yl)hexahydro-2,5-methanopentalen-3a(1H)-yl]glycyl}pyrrolidine-2-carbonitrile] |
